Here are results for seven molecules from patent US5079247A, “N^1 -substituted benz(cd)indol-2-imine compounds as cardiovascular agents” (American Cyanamid Company, priority 1990, dated 1992).

Each structure is given as a SMILES string.

As a reminder, the inhibition is the change of the read-out against control, counted positive when it falls.

The test system of test [1] is KCl-induced cardiac arrhythmias, fibrillation and cardiac death in mice. Kind of test: Antiarrhythmic/antifibrillatory activity in anesthetized mice, potassium chloride challenge. The following applies: Mus musculus, iv, 0.25 h; Dose = 10 mg/kg I.V.; potassium chloride 62.5 mg/kg i.v.; 15 minutes observation; read-out: KCl Mice Surviving / Mice Tested (converted). Type of test: in vivo, mice of the Swiss Webster Strain. From the text:
(§1) Intravenous administration of high doses of calcium or potassium chloride in animals produces cardiac arrhythmias, cardiac fibrillation and cardiac arrest. Any agent that can prevent these events is considered an antiarrhythmic/antifibrillatory agent. (Meth. and Find Exptl. Clin Pharmacal.2:223-252(1980); Pharmacol Ther. 24:401-433 (1984); Experimental Cardiac and Antiarrhythmic Drugs, L. Szekeres and Gy. J. Dapp, Akademiai Kiado Preso, Budapest, 9-448 (1971)).
(§2) The method employed is as follows: Male mice of the Swiss Webster Strain (Charles River, Wilmington, MA) weighing 25-35 g were anesthetized with ethyl carbamate (urethan) (1.5g/kg body weight i.p.). A 25-gauge needle attached to PE-20 tubing was inserted into a caudal vein for drug administration. The lead II ECG was recorded by needle electrodes placed subcutaneously in the limbs. All data were collected on a Gould Brush recorder. Animals were observed 5 minutes before drug administration. A 5, 15 or 30 minute period following drug administration was allowed before the bolus injection of calcium chloride, 200 mg/ kg i.v. or potassium chloride, 62.5 mg/kg i.v. Control mice received 4 ml/kg of 0.9% sodium chloride i.v. Mice were observed an additional 15 minutes for arrhythmias,fibrillation, survival or death. Any compound at a dose of less than 20 mg/kg i.v. in either test that protects from cardiac death 3 or more mice out of 6 mice, is considered active.

Test [2] concerns spontaneously hypertensive rats of the Okamoto strain. Kind of test: Hypotensive activity in spontaneously hypertensive rats (method of Chan and Poorvin). The following applies: by gavage, 100 mg/kg or less, two doses 24 hours apart; MABP at 28 hours after initial dose; average baseline MABP 160±1.5 mm of mercury. The class given is in vivo, rat. As for the experimental part: The novel compounds of the present invention are active hypotensive agents and were tested for hypotensive activity by the method of P. S. Chan and D. Poorvin, Clinical and Experimental Hypertension, 1 (6), 817-830 (1979). Male, 16 week old, spontaneously hypertensive rats of the Okamoto strain, from Taconic Farms, Germantown, New York, having an average mean arterial blood pressure of 160±1.5 mm of mercury, were used in the test. One to 3 rats were used per test compound. […] A second identical dose of the test compound, without sodium chloride loading was given 24 hours later. At 28 hours after the initial dose the mean arterial blood pressure (MABP) was measured. The procedure was repeated in a second and third rat when necessary.

In test [3] the target is T1, thromboxane synthetase enzyme (Rattus norvegicus, UniProt P49430).
T1 construct: The platelets were isolated by centrifuging the PRP for 10 minutes; from tissue; host or cells: washed platelets from arterial blood of Okamoto-Aoki spontaneously hypertensive rats (animals from Taconic Farms)
T1 sequence (P49430 1-533): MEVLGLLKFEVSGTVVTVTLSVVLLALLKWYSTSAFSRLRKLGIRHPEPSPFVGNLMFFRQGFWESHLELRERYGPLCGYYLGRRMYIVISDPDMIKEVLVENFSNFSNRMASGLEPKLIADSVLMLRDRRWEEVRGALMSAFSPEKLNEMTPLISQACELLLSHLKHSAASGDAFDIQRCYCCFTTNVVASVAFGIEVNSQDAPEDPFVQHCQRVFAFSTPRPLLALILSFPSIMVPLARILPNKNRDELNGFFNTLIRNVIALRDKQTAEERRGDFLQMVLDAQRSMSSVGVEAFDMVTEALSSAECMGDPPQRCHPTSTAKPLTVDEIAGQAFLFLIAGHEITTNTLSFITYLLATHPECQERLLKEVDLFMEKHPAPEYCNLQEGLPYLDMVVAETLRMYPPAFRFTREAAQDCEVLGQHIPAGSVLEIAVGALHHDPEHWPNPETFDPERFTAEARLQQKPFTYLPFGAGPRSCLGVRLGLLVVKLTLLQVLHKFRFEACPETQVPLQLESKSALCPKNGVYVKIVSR
Kind of test: Thromboxane synthetase enzyme inhibition (TXB2 formation in platelet suspension, RIA). Type of test: cell-based, Okamoto-Aoki spontaneously hypertensive rats (SHR). The settings on record: concentration 1 × 10^-4 M; SHR platelet suspension, 10 minutes at 37° C. The procedure: Under urethan anethesia, […] of arterial blood from Okamoto-Aoki spontaneously hypertensive rats (SHR) (Taconic Farms, Germantown, New York) between 19 and 24 weeks in age was collected in 1 ml of 3.2% sodium citrate in a polystyrene tube. The blood was diluted with 3 ml of cold saline and centrifuged at room temperature for 15 minutes at 460Xg. The platelet rich plasma (PRP) was separated. The platelets were isolated by centrifuging the PRP for 10 minutes at 1060Xg and were washed in 4 ml of cold oxygenated Krebs phosphate buffer, pH 7.4. The chilled platelets, recovered from centrifuging at 800Xg for 10 minutes, were resuspended in oxygenated Krebs phosphate buffer and diluted to contain 4.5-6.0×10^4 platelets/μl. The inhibition of thromboxane (TX) formation was studied by determining the concentration of thromboxane B2 (TXB2), the stable hydrolysis product of TXA2. Assay samples, prepared on ice, contained 200 μl platelet suspension, 50 μl saline, and 50 μl vehicle or drug under study at a concentration of 1×10^-4 M. The samples were incubated for 10 minutes at 37° C. in metabolic shaker. The reaction was terminated by immersing the tubes in an ice bath and adding 50 μl of 0.5M citric acid. The samples were centrifuged for 10 minutes in a refrigerated centrifuge and the supernatants thus obtained were decanted and stored at -20° C. The TXB2 content for each sample was determined by a direct radioimmunoassay (RIA) utilizing a TXB2 specific RIA kit purchased from New England Nuclear, Boston, Massachusetts and expressed as pg TXB2 formed minute^-1 sample^-1, from which the percent inhibition of TXB2 formation was calculated.

In test [4] the test system is CaCl2-induced cardiac arrhythmias, fibrillation and cardiac death in mice. In words: Antiarrhythmic/antifibrillatory activity in anesthetized mice, calcium chloride challenge. The following applies: Mus musculus, iv, 0.25 h; Dose = 10 mg/kg I.V.; calcium chloride 200 mg/kg i.v.; 15 minutes observation; read-out: CaCl2 Mice Surviving / Mice Tested (converted). The class given is in vivo, mice of the Swiss Webster Strain.
Excerpt: as §1, §2

As to `CN1C(=NCCCc2cccnc2)c2cccc3cccc1c23` [Example 26, N-(1 Methylbenz[cd]indol-2(1H) -ylidene)-3-pyridinepropanamine, (E)-2-butenedioate (2:3)], the responders at 10 mg/kg in test [1] was 33.3%; in test [4], 16.7%. In addition, in test [2], the “Avg. MABP in mm Hg (No. of Rats)” value amounted to 114 mm Hg. This molecule showed an inhibition at 100 µM in test [3] of 93%.
In the case of `c1ccc(CN2C(=NCCCCn3ccnc3)c3cccc4cccc2c34)cc1` [Example 23, N-[1-(Phenylmethyl)benz[cd]indol-2(1H)-ylidene-1H-imidazole-1-butanamine,(E)-2-butenedioate (1:2)], the responders at 10 mg/kg in test [1] was 100%; in test [4], 33.3%. Besides, the “Avg. MABP in mm Hg (No. of Rats)” value in test [2] was determined as 124 mm Hg. In test [3], this molecule yielded an inhibition at 100 µM of 100%.
For `N#CCCCCN1C(=NCCCCc2cccnc2)c2cccc3cccc1c23` [Example 32, N2-[[4-(3-Pyridinyl)butyl]imino]benz[cd]indole-1(2H)-pentanenitrile, (E)2-butenedioate (4:7)], the figures for the responders at 10 mg/kg in test [1] and in test [4] were 83.3% and 33.3%, respectively. For the same molecule, the “Avg. MABP in mm Hg (No. of Rats)” value in test [2] was found to be 129 mm Hg. Besides, testing at 100 µM in test [3] gave an inhibition of 98%.
As for `CN1C(=NCCCCc2cccnc2)c2cccc3cccc1c23` [Example 27], the responders at 10 mg/kg in test [1] was 50%; in test [4], 58.3%. For the same molecule, the “Avg. MABP in mm Hg (No. of Rats)” value in test [2] is 107 mm Hg. This molecule gave an inhibition at 100 µM in test [3] of 100%.
Regarding `CC(CCn1ccnc1)N=C1c2cccc3cccc(c23)N1C(c1ccccc1)c1ccccc1` (stereo not drawn) [Example 35, N-[1-(Diphenylmethyl)benz[cd]indol-2(1H)-ylidene]alpha-methyl-1H-imidazole-1-propanamine], the responders at 10 mg/kg was 50% in test [1] and 0% in test [4]. Also, the “Avg. MABP in mm Hg (No. of Rats)” value in test [2] is 127 mm Hg. Also, the inhibition at 100 µM in test [3] was found to be 88%.
As to `Cl.Cl.c1ccc(OCCCN2C(=NCCCn3ccnc3)c3cccc4cccc2c34)cc1` [Example 12, N-[1-(3-Phenoxypropyl)benz[cd]indol-2(1H)-ylidene]-1H-imidazole-1-propanamine, dihydrochloride], in test [2], the “Avg. MABP in mm Hg (No. of Rats)” value was 122 mm Hg. For the same molecule, the inhibition at 100 µM in test [3] is 90%.
Turning to `c1cc2c3c(cccc3c1)N(CCN1CCOCC1)C2=NCCCn1ccnc1` [Example 8, N-[1-[2-(4-Morpholinyl)ethyl]benz[cd]indol-2(1H)-ylidene-1H-imidazole-1-propanamine, (E)-2-butenedioate (1:2)], the responders at 10 mg/kg was 83.3% in test [1] and 0% in test [4]. In addition, in test [2], the “Avg. MABP in mm Hg (No. of Rats)” value came out at 119 mm Hg. The inhibition at 100 µM in test [3] turned out to be 96%.
